Calls of active or inactive are those of the source. The rule behind the calls is not given here.
Test system: rodent carcinogenicity bioassays, tumor incidence
Assay: CCRIS carcinogenicity studies
Method in brief: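 NCI-built, expert-reviewed records of carcinogenicity and related test outcomes (mutagenicity, tumor promotion/inhibition) compiled from published and report sources, historical span 1985-2011, not updated.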

CC(O)CNC(=O)N(CCCl)N=O (stereo not drawn)
carcinogen call (Species: RAT, Strain/Sex: F344/FEMALE, Route: ORAL, Dose: 0, 18 MG/L IN DRINKING WATER 5 D/WK FOR 30 WK (STUDY DURATION: LIFETIME)): inactive; negative | carcinogen call (Species: RAT, Strain/Sex: F344/MALE, Route: ORAL, Dose: 0, 18 MG/L IN DRINKING WATER 5 D/WK FOR 30 WK (STUDY DURATION: LIFETIME), Tumor Site: Type of Lesion: LIVER: TUMOR, LUNG: TUMOR): active; positive

O=C1NC(=O)C(c2ccccc2)(c2ccccc2)N1
carcinogen call (Species: MOUSE, Route: INTRAPERITONEAL, ORAL, Tumor Site: Type of Lesion: HEMATOPOIETIC SYSTEM (LEUKEMIA), LYMPHATIC SYSTEM: LYMPHOMA): active; positive | carcinogen call (Species: MOUSE, Strain/Sex: B6C3F1/FEMALE, Route: IN UTERO, ORAL, Dose: 0, 21 PPM IN DIET FED TO MOTHERS 1 WK BEFORE BREEDING, THROUGH BREEDING, GESTATION AND LACTATION, THEN DIETS WITH 60 PPM): inactive; negative | carcinogen call (Species: MOUSE, Strain/Sex: B6C3F1/FEMALE, Route: IN UTERO, ORAL, Dose: 0, 70 PPM IN DIET FED TO MOTHERS 1 WK BEFORE BREEDING, THROUGH BREEDING, GESTATION AND LACTATION, THEN DIETS WITH 200 PP): inactive; negative | carcinogen call (Species: MOUSE, Strain/Sex: B6C3F1/FEMALE, Route: IN UTERO, ORAL, Dose: 0, 210 PPM IN DIET FED TO MOTHERS 1 WK BEFORE BREEDING, THROUGH BREEDING, GESTATION AND LACTATION, THEN DIETS WITH 0, 20, Tumor Site: Type of Lesion: LIVER: HEPATOCELLULAR ADENOMA, HEPATOCELLULAR CARCINOMA): active; positive | carcinogen call (Species: MOUSE, Strain/Sex: B6C3F1/FEMALE, Route: ORAL, Dose: 0, 200, 600 PPM IN DIET FOR 2 YR (STUDY DURATION: 2 YR), Dose: 0, 200, 600 PPM IN DIET FOR 2 YR (STUDY DURATION: 2 YR), Tumor Site: Type of Lesion: LIVER: HEPATOCELLULAR ADENOMA, HEPATOCELLULAR CARCINOMA): active; positive | carcinogen call (Species: MOUSE, Strain/Sex: B6C3F1/MALE, Route: IN UTERO, ORAL, Dose: 0, 21 PPM IN DIET FED TO MOTHERS 1 WK BEFORE BREEDING, THROUGH BREEDING, GESTATION AND LACTATION, THEN DIETS WITH 30 PPM): inactive; negative | carcinogen call (Species: MOUSE, Strain/Sex: B6C3F1/MALE, Route: IN UTERO, ORAL, Dose: 0, 70 PPM IN DIET FED TO MOTHERS 1 WK BEFORE BREEDING, THROUGH BREEDING, GESTATION AND LACTATION, THEN DIETS WITH 100 PP): inactive; negative | carcinogen call (Species: MOUSE, Strain/Sex: B6C3F1/MALE, Route: IN UTERO, ORAL, Dose: 0, 210 PPM IN DIET FED TO MOTHERS 1 WK BEFORE BREEDING, THROUGH BREEDING, GESTATION AND LACTATION, THEN DIETS WITH 0, 10): inactive; negative | carcinogen call (Species: MOUSE, Strain/Sex: B6C3F1/MALE, Route: ORAL, Dose: 0, 100, 300 PPM IN DIET FOR 2 YR (STUDY DURATION: 2 YR), Dose: 0, 100, 300 PPM IN DIET FOR 2 YR (STUDY DURATION: 2 YR)): inactive; negative | carcinogen call (Species: RAT, Strain/Sex: F344/DUCRJ/FEMALE, Route: ORAL, Dose: 0, 0.025, 0.05% IN BASAL DIET FOR 2 YR (STUDY DURATION: 112 WK), Dose: 0, 0.025, 0.05% IN BASAL DIET FOR 2 YR (STUDY DURATION: 112 WK)): inactive; negative | carcinogen call (Species: RAT, Strain/Sex: F344/DUCRJ/MALE, Route: ORAL, Dose: 0, 0.025, 0.05% IN BASAL DIET FOR 2 YR (STUDY DURATION: 112 WK), Dose: 0, 0.025, 0.05% IN BASAL DIET FOR 2 YR (STUDY DURATION: 112 WK)): inactive; negative | carcinogen call (Species: RAT, Strain/Sex: F344/FEMALE, Route: IN UTERO, ORAL, Dose: 0, 63 PPM IN DIET FED TO MOTHERS 1 WK BEFORE BREEDING, THROUGH BREEDING, GESTATION AND LACTATION, THEN DIETS WITH 240 PP): inactive; negative | carcinogen call (Species: RAT, Strain/Sex: F344/FEMALE, Route: IN UTERO, ORAL, Dose: 0, 210 PPM IN DIET FED TO MOTHERS 1 WK BEFORE BREEDING, THROUGH BREEDING, GESTATION AND LACTATION, THEN DIETS WITH 800 P): inactive; negative | carcinogen call (Species: RAT, Strain/Sex: F344/FEMALE, Route: IN UTERO, ORAL, Dose: 0, 630 PPM IN DIET FED TO MOTHERS 1 WK BEFORE BREEDING, THROUGH BREEDING, GESTATION AND LACTATION, THEN DIETS WITH 0, 80): inactive; negative | carcinogen call (Species: RAT, Strain/Sex: F344/FEMALE, Route: ORAL, Dose: 0, 800, 2400 PPM IN DIET FOR 2 YR (STUDY DURATION: 2 YR), Dose: 0, 800, 2400 PPM IN DIET FOR 2 YR (STUDY DURATION: 2 YR)): inactive; negative | carcinogen call (Species: RAT, Strain/Sex: F344/MALE, Route: IN UTERO, ORAL, Dose: 0, 63 PPM IN DIET FED TO MOTHERS 1 WK BEFORE BREEDING, THROUGH BREEDING, GESTATION AND LACTATION, THEN DIETS WITH 240 PP): inactive; negative | carcinogen call (Species: RAT, Strain/Sex: F344/MALE, Route: IN UTERO, ORAL, Dose: 0, 210 PPM IN DIET FED TO MOTHERS 1 WK BEFORE BREEDING, THROUGH BREEDING, GESTATION AND LACTATION, THEN DIETS WITH 800 P): inactive; negative | carcinogen call (Species: RAT, Strain/Sex: F344/MALE, Route: IN UTERO, ORAL, Dose: 0, 630 PPM IN DIET FED TO MOTHERS 1 WK BEFORE BREEDING, THROUGH BREEDING, GESTATION AND LACTATION, THEN DIETS WITH 0, 80): inactive; negative | carcinogen call (Species: RAT, Strain/Sex: F344/MALE, Route: ORAL, Dose: 0, 800, 2400 PPM IN DIET FOR 2 YR (STUDY DURATION: 2 YR), Dose: 0, 800, 2400 PPM IN DIET FOR 2 YR (STUDY DURATION: 2 YR), Tumor Site: Type of Lesion: LIVER: HEPATOCELLULAR ADENOMA OR CARCINOMA): equivocal

CC1CC2OC2CC1COC(=O)C1CC2OC2CC1C (stereo not drawn)
carcinogen call (Species: MOUSE, Route: DERMAL, Tumor Site: Type of Lesion: INTEGUMENTARY SYSTEM (SKIN)): active; positive

F
carcinogen call (Species: MOUSE, Strain/Sex: B6C3F1/FEMALE, Route: ORAL, Dose: 0, 25, 100, 175 PPM IN DRINKING WATER FOR 103 WK (STUDY DURATION: 103 WK), Dose: 0, 25, 100, 175 PPM IN DRINKING WATER FOR 103 WK (STUDY DURATION: 103 WK)): inactive; negative | carcinogen call (Species: MOUSE, Strain/Sex: B6C3F1/MALE, Route: ORAL, Dose: 0, 25, 100, 175 PPM IN DRINKING WATER FOR 103 WK (STUDY DURATION: 103 WK), Dose: 0, 25, 100, 175 PPM IN DRINKING WATER FOR 103 WK (STUDY DURATION: 103 WK)): inactive; negative | carcinogen call (Species: MOUSE, Strain/Sex: F344/MALE, Route: ORAL, Dose: 0, 25, 100, 175 PPM IN DRINKING WATER FOR 103 WK (STUDY DURATION: 103 WK), Dose: 0, 25, 100, 175 PPM IN DRINKING WATER FOR 103 WK (STUDY DURATION: 103 WK), Tumor Site: Type of Lesion: BONE: OSTEOSARCOMA): equivocal | carcinogen call (Species: RAT, Strain/Sex: F344/FEMALE, Route: ORAL, Dose: 0, 25, 100, 175 PPM IN DRINKING WATER FOR 103 WK (STUDY DURATION: 103 WK), Dose: 0, 25, 100, 175 PPM IN DRINKING WATER FOR 103 WK (STUDY DURATION: 103 WK)): inactive; negative | carcinogen call (Species: RAT, Strain/Sex: SPRAGUE-DAWLEY/FEMALE, Route: ORAL, Dose: 0, 4, 10, 25 MG/KG/D ADDED TO LOW-FLUORIDE DIET FOR DURATION OF STUDY (STUDY DURATION: 99 WK), Dose: 0, 4, 10, 25 MG/KG/D ADDED TO LOW-FLUORIDE DIET FOR DURATION OF STUDY (STUDY DURATION: 99 WK)): inactive; negative | carcinogen call (Species: RAT, Strain/Sex: SPRAGUE-DAWLEY/MALE, Route: ORAL, Dose: 0, 4, 10, 25 MG/KG/D ADDED TO LOW-FLUORIDE DIET FOR DURATION OF STUDY (STUDY DURATION: 95 WK), Dose: 0, 4, 10, 25 MG/KG/D ADDED TO LOW-FLUORIDE DIET FOR DURATION OF STUDY (STUDY DURATION: 95 WK)): inactive; negative

From PubChem BioAssay AID1259411 (Chemical Carcinogenesis Research Information System (CCRIS), 2018)
